# Target: human full-length MKNK1 (Homo sapiens (Human), UniProt Q9BUB5, T344D)
# Test: MKNK1 kinase high ATP assay (TR-FRET)
# Format: biochemical
# Conditions: 2 mM ATP, 15 min preincubation with enzyme, GST-MKNK1 (T344D)
# In short: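 GST-tagged full-length human MKNK1 (1-424, T344D, baculovirus-expressed) preincubated 15 min at 22 °C with compound, then reacted 30 min at 22 °C with 2 mM ATP and 0.06 μM biotinylated peptide (final) in HEPES pH 7.5. Phospho-substrate by TR-FRET (665/622 nm ratio), normalised to no-inhibitor and no-enzyme controls.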
# Chain of human full-length MKNK1 (Q9BUB5 other isoform, or with tags, fused parts or gaps T344D): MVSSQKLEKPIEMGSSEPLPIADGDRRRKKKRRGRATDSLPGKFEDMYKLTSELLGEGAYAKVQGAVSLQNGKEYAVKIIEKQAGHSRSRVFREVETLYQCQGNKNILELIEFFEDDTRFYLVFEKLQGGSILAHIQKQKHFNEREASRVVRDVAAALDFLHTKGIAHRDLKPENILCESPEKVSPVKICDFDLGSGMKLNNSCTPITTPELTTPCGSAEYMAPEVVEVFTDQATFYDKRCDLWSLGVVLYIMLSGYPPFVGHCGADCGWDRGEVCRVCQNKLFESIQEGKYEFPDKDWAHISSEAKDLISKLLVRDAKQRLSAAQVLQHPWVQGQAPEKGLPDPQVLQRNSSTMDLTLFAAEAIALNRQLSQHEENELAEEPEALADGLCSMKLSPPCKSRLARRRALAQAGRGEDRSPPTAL
row,Compound,IC50 [µM]
1,"Cc1cc(Nc2ncnc3sc(C(=O)N4C[C@H]5C[C@@H]4CO5)cc23)c(=O)n2c1C(=O)NC21CCC1 [Example 158, 8′-Methyl-6′-({6-[(1R,4R)-2-oxa-5-azabicyclo[2.2.1]hept-5-ylcarbonyl]thieno[2,3-d]pyrimidin-4-yl}amino)-2′H-spiro[cyclobutane-1,3′-imidazo[1,5-a]pyridine]-1′,5′-dione]",0.005
2,"Cc1cc(Nc2ncnc3[nH]cnc23)c(=O)n2c1C(=O)NC21CCC1 [Example 159, 8′-Methyl-6′-(9H-purin-6-ylamino)-2′H-spiro[cyclobutane-1,3′-imidazo[1,5-a]pyridine]-1′,5′-dione]",0.0021
3,"Cc1cc(Nc2ncnc3[nH]ncc23)c(=O)n2c1C(=O)NC21CCC1 [Example 160, 8′-Methyl-6′-(1H-pyrazolo[3,4-d]pyrimidin-4-ylamino)-2′H-spiro[cyclobutane-1,3′-imidazo[1,5-a]pyridine]-1′,5′-dione]",0.0029
4,"Cc1cc(Nc2ncnc3c2CN(C(=O)OC(C)(C)C)C3)c(=O)n2c1C(=O)NC21CCC1 [Example 162, tert-Butyl 4-[(8′-methyl-1′,5′-dioxo-1′,5′-dihydro-2′H-spiro[cyclobutane-1,3′-imidazo[1,5-a]pyridin]-6′-yl)amino]-5,7-dihydro-6H-pyrrolo[3,4-d]pyrimidine-6-carboxylate]",0.0217
5,"Cc1cc(Nc2ncnc3c2CN(C(=O)OC(C)(C)C)C3)c(=O)n2c1C(=O)NC2(C)C [Example 163, tert-Butyl 4-[(3,3,8-trimethyl-1,5-dioxo-1,2,3,5-tetrahydroimidazo[1,5-a]pyridin-6-yl)amino]-5,7-dihydro-6H-pyrrolo[3,4-d]pyrimidine-6-carboxylate]",0.0168
6,"Cc1cc(Nc2ncnc3scnc23)c(=O)n2c1C(=O)NC2(C)C [Example 164, 3,3,8-Trimethyl-6-([1,3]thiazolo[5,4-d]pyrimidin-7-ylamino)-2,3-dihydroimidazo[1,5-a]pyridine-1,5-dione]",0.383
7,"Cc1cc(Nc2ncnc3c2CNC3)c(=O)n2c1C(=O)NC2(C)C [Example 165, 6-(6,7-Dihydro-5H-pyrrolo[3,4-d]pyrimidin-4-ylamino)-3,3,8-trimethyl-2,3-dihydroimidazo[1,5-a]pyridine-1,5-dione]",0.168
8,"Cc1cc(Nc2ncnc3ccc(Cl)cc23)c(=O)n2c1C(=O)NC2(C)C [Example 166, 6-[(6-Chloroquinazolin-4-yl)amino]-3,3,8-trimethyl-2,3-dihydroimidazo[1,5-a]pyridine-1,5-dione]",0.0459
9,"Cc1cc(Nc2ncnc3ccc(Cl)cc23)c(=O)n2c1C(=O)NC21CCC1 [Example 167, 6′-[(6-Chloroquinazolin-4-yl)amino]-8′-methyl-2′H-spiro[cyclobutane-1,3′-imidazo[1,5-a]pyridine]-1′,5′-dione]",0.0057
10,"Cc1cc(Nc2ncnc3c2CNC3)c(=O)n2c1C(=O)NC21CCC1 [Example 168, 6′-(6,7-Dihydro-5H-pyrrolo[3,4-d]pyrimidin-4-ylamino)-8′-methyl-2′H-spiro[cyclobutane-1,3′-imidazo[1,5-a]pyridine]-1′,5′-dione]",0.0495
11,Cc1cc(Nc2ncnc3sc(C(=O)O)c(C)c23)c(=O)n2c1C(=O)NC21CCC1 [Example 169],0.0157
12,"Cc1cc(Nc2ncnc3cccc(C)c23)c(=O)n2c1C(=O)NC21CCC1 [Example 170, 8′-methyl-6′-[(5-methylquinazolin-4-yl)amino]-2′H-spiro[cyclobutane-1,3′-imidazo[1,5-a]pyridine]-1′,5′-dione]",0.0053
13,"Cc1cc(Nc2ncnc3ccc(F)cc23)c(=O)n2c1C(=O)NC21CCC1 [Example 171, 6′-[(6-fluoroquinazolin-4-yl)amino]-8′-methyl-2′H-spiro[cyclobutane-1,3′-imidazo[1,5-a]pyridine]-1′,5′-dione]",0.006
14,"Cc1cc(Nc2ncnc3ccccc23)c(=O)n2c1C(=O)NC21CCC1 [Example 172, 8′-methyl-6′-[(quinazolin-4-yl)amino]-2′H-spiro[cyclobutane-1,3′-imidazo[1,5-a]pyridine]-1′,5′-dione]",0.0121
15,"Cc1cc(Nc2ncnc3scnc23)c(=O)n2c1C(=O)NC21CSC1 [Example 173, 8-methyl-6-[([1,3]thiazolo[5,4-d]pyrimidin-7-yl)amino]-2H-spiro[imidazo[1,5-a]pyridine-3,3′-thietane]-1,5-dione]",0.0058
16,"Cc1cc(Nc2ncnc3cccc(C)c23)c(=O)n2c1C(=O)NC21CSC1 [Example 174, 8-methyl-6-[(5-methylquinazolin-4-yl)amino]-2H-spiro[imidazo[1,5-a]pyridine-3,3′-thietane]-1,5-dione]",0.0128
17,"Cc1cc(Nc2ncnc3ccc(Cl)cc23)c(=O)n2c1C(=O)NC21CSC1 [Example 175, 6-[(6-chloroquinazolin-4-yl)amino]-8-methyl-2H-spiro[imidazo[1,5-a]pyridine-3,3′-thietane]-1,5-dione]",0.0144

row,Compound,IC50 [µM]
1,"Cc1cc(Nc2ncnc3ccc(F)cc23)c(=O)n2c1C(=O)NC21CSC1 [Example 176, 6-[(6-fluoroquinazolin-4-yl)amino]-8-methyl-2H-spiro[imidazo[1,5-a]pyridine-3,3′-thietane]-1,5-dione]",0.019
2,"Cc1cc(Nc2ncnc3sccc23)c(=O)n2c1C(=O)NC21CSC1 [Example 177, 8-methyl-6-[(thieno[2,3-d]pyrimidin-4-yl)amino]-2H-spiro[imidazo[1,5-a]pyridine-3,3′-thietane]-1,5-dione]",0.0043
3,"Cc1cc(Nc2ncnc3[nH]ccc23)c(=O)n2c1C(=O)NC21CSC1 [Example 178, 8-methyl-6-[(7H-pyrrolo[2,3-d]pyrimidin-4-yl)amino]-2H-spiro[imidazo[1,5-a]pyridine-3,3′-thietane]-1,5-dione]",0.0011
4,"Cc1cc(Nc2ncnc3cccc(C)c23)c(=O)n2c1C(=O)NC21CS(=O)(=O)C1 [Example 179, 8-methyl-6-[(5-methylquinazolin-4-yl)amino]-2H-spiro[imidazo[1,5-a]pyridine-3,3′-thietane]-1,5-dione 1′,1′-dioxide]",0.124
5,"Cc1cc(Nc2ncnc3ccc(Cl)cc23)c(=O)n2c1C(=O)NC21CS(=O)(=O)C1 [Example 180, 6-[(6-chloroquinazolin-4-yl)amino]-8-methyl-2H-spiro[imidazo[1,5-a]pyridine-3,3′-thietane]-1,5-dione 1′,1′-dioxide]",0.104
6,"Cc1cc(Nc2ncnc3cc(Cl)ccc23)c(=O)n2c1C(=O)NC21CS(=O)(=O)C1 [Example 181, 6-[(7-chloroquinazolin-4-yl)amino]-8-methyl-2H-spiro[imidazo[1,5-a]pyridine-3,3′-thietane]-1,5-dione 1′,1′-dioxide]",0.104
7,"Cc1cc(Nc2ncnc3ccccc23)c(=O)n2c1C(=O)NC21CS(=O)(=O)C1 [Example 182, 8-methyl-6-(quinazolin-4-ylamino)-2H-spiro[imidazo[1,5-a]pyridine-3,3′-thietane]-1,5-dione 1′,1′-dioxide]",0.261
8,"Cc1cc(Nc2ncnc3cccc(C)c23)c(=O)n2c1C(=O)NC21CCCC1 [Example 183, 8′-methyl-6′-[(5-methylquinazolin-4-yl)amino]-2′H-spiro[cyclopentane-1,3′-imidazo[1,5-a]pyridine]-1′,5′-dione]",0.013
9,"Cc1cc(Nc2ncnc3ccc(C(F)(F)F)cc23)c(=O)n2c1C(=O)NC21CCCC1 [Example 184, 8′-methyl-6′-{[6-(trifluoromethyl)quinazolin-4-yl]amino}-2′H-spiro[cyclopentane-1,3′-imidazo[1,5-a]pyridine]-1′,5′-dione]",0.034
10,"Cc1cc(Nc2ncnc3ccc(F)cc23)c(=O)n2c1C(=O)NC21CCCC1 [Example 185, 6′-[(6-fluoroquinazolin-4-yl)amino]-8′-methyl-2′H-spiro[cyclopentane-1,3′-imidazo[1,5-a]pyridine]-1′,5′-dione]",0.0079
11,"Cc1cc(Nc2ncnc3cc(Cl)ccc23)c(=O)n2c1C(=O)NC21CCCC1 [Example 186, 6′-[(7-chloroquinazolin-4-yl)amino]-8′-methyl-2′H-spiro[cyclopentane-1,3′-imidazo[1,5-a]pyridine]-1′,5′-dione]",0.0055
12,"Cc1cc(Nc2ncnc3ccccc23)c(=O)n2c1C(=O)NC21CCCC1 [Example 187, 8′-methyl-6′-[(quinazolin-4-yl)amino]-2′H-spiro[cyclopentane-1,3′-imidazo[1,5-a]pyridine]-1′,5′-dione]",0.0073
13,"Cc1cc(Nc2ncnc3cccc(C)c23)c(=O)n2c1C(=O)N[C@]21CC[C@@](O)(C(F)(F)F)CC1 [Example 188, (cis)-4-hydroxy-8′-methyl-6′-[(5-methylquinazolin-4-yl)amino]-4-(trifluoromethyl)-2′H-spiro[cyclohexane-1,3′-imidazo[1,5-a]pyridine]-1′,5′-dione]",0.047
14,"Cc1cc(Nc2ncnc3ccc(F)cc23)c(=O)n2c1C(=O)N[C@]21CC[C@@](O)(C(F)(F)F)CC1 [Example 189, (cis)-6′-[(6-fluoroquinazolin-4-yl)amino]-4-hydroxy-8′-methyl-4-(trifluoromethyl)-2′H-spiro[cyclohexane-1,3′-imidazo[1,5-a]pyridine]-1′,5′-dione]",0.274
15,"Cc1cc(Nc2ncnc(N)n2)c(=O)n2c1C(=O)N[C@]21CC[C@@](O)(C(F)(F)F)CC1 [Example 190, (cis)-6′-[(4-amino-1,3,5-triazin-2-yl)amino]-4-hydroxy-8′-methyl-4-(trifluoromethyl)-2′H-spiro[cyclohexane-1,3′-imidazo[1,5-a]pyridine]-1′,5′-dione]",0.0314
16,"Cc1cc(Nc2ncnc3cccc(C)c23)c(=O)n2c1C(=O)N[C@]21CC[C@@](O)(C(F)(F)C(F)(F)F)CC1 [Example 191, (cis)-4-hydroxy-8′-methyl-6′-[(5-methylquinazolin-4-yl)amino]-4-(pentafluoroethyl)-2′H-spiro[cyclohexane-1,3′-imidazo[1,5-a]pyridine]-1′,5′-dione]",0.0678

# — patent US11311520B2, “Substituted dihydroimidazopyridinediones as MKNK1 and MKNK2 inhibitors” (Bayer Pharma Aktiengesellschaft, priority 2017, dated 2022)
